Experimental data published in patent publication US7011845B2, “β-glucans encapsulated in liposomes” (MCP Hahnemann University, priority 2000, dated 2006).

Key:
[1] = Quantification of lentinan in serum after oral administration (Fungitec G test); assay type: in vivo; details: mice fed orally four times with 100 μg (total 400 μg) during 4 hr, serum 2 hr after last administration, mean ± SD
Method: Formulations of 400 μg of lentinan dissolved in PBS or associated with liposomes were delivered orally in four doses to fasted mice over a period of 4 hrs. The level of lentinan in blood serum was measured 2 hr after the delivery using the Fungitec G test (Seikagaku Co., Inc.), according to the manufacturer's protocol. Background activity was determined by analyzing lentinan levels in sera of control mice.
We first investigated whether lentinan dissolved in PBS or associated with liposomes would penetrate through the epithelial barrier of the gut. Mice were fed with four doses of liposome-associated or unencapsulated lentinan (total concentration of 400 μg) over a 4-hr period. The level of lentinan in blood serum was analyzed 2 hr after lentinan administration.

[2] = tested on: splenocytes stimulated with rgp160

Lentinan
Serum concentration of lentinan ([1]; listed as Unencapsulated lentinan): 1,325 ± 1,241 pg/ml
Serum concentration of lentinan ([1]; listed as unencapsulated lentinan): 1,325±1,241 pg/ml
Toxic effect to the cells [2]: without any detectable toxic effect
Env-specific IFN-γ level relative to stimulation with rgp160 in the absence of lentinan ([2]; lentinan 3 μg/ml to 100 μg/ml, 3 days, FIG. 3): ~2 fold
Effect on env-specific IFN-γ production ([2]; lentinan higher than 100 μg/ml or lower than 3 μg/ml): smaller effect
